This is an account of results in patent publication US7888380B2, “1,2,4-Triazolylaminoaryl (heteroaryl) sulfonamide derivatives” (Janssen Pharmaceutica, N.V., priority 2004, dated 2011).

As a reminder, the IC50 is the concentration that inhibits the measured activity by half.

Counter-ions that a name gives are not always drawn. Like-named read-outs stand apart in the source and are kept apart here.

Assay [1] concerns the target T1, CDK1:Cyclin-B (Homo sapiens, UniProt P06493).
T1 construct: purchased New England Biolabs, Beverly, Mass; 6020; host or cells: insect cells
Put plainly: CDK1 Screening Assay (33P-ATP FlashPlate). Type of assay: biochemical. As to conditions: 10 μM ATP; >10 or >100 = less than 50% inhibition at highest concentration tested. As to the method: A kinase reaction mixture was prepared containing 50 mM Tris-HCl pH=8, 10 mM MgCl2, 0.1 mM Na3PO4, 1 mM DTT, 10 μM ATP, 0.025 μM biotinylated histone-H1 peptide substrate and 0.2 μCuries per well ^33P-γ-ATP (2000-3000 Ci/mmol). 70 μL of the kinase reaction mixture was dispensed into each well of a streptavidin coated FlashPlate™ (Cat. # SMP103, NEN, Boston, Mass.). Then 1 μL of test compound stock in 100% DMSO was added to the wells resulting in a final concentration of 1% DMSO in the reaction with a 100 μl final reaction volume.
Next, CDK1:Cyclin-B protein was diluted in 50 mM Tris-HCl pH=8.0, 0.1% BSA at a concentration of 1 ng per μL and 30 μL (30 ng enzyme per test well) was added to each well to initiate the reaction. The reaction was incubated for one hour at 30° C. At the end of the 1 h incubation, the reaction was terminated by aspirating the mixture from the plate and washing the wells twice with PBS containing 100 mM EDTA. The histone-H1 biotinylated peptide substrate became immobilized on the Flashplate™ and the incorporation of ^33P-γ-ATP was measured by reading the plate on a scintillation counter. Inhibition of the enzymatic activity of CDK1 was measured by observing a reduced amount of ^33P-γ-ATP incorporated into the immobilized peptide.
(§1) VEGF-R (vascular endothelial growth factor receptor-2) is a fusion protein containing a polyhistidine tag at the N-terminus followed by amino acids 786-1343 of the rat VEGF-R2 kinase domain (GenBank Accession #U93306). CDK1 (cyclin dependent kinase 1) was isolated from insect cells expressing both the human CDK1 catalytic subunit and its positive regulatory subunit cyclin B (New England Biolabs, Beverly, Mass., Cat. # 6020). CDK2 in complex with cyclin A is commercially available (Upstate Biotech, Lake Placid, N.Y.). The HER2 (human epidermal growth factor receptor-2) construct contains a polyhistidine tag at the N-terminus followed by 24 additional amino acids and begins at amino acid 676 followed by the remainder of the HER2 cytoplasmic domain.

The target of assay [2] is T2, VEGF-R2 kinase (Rattus norvegicus, UniProt O08775).
T2 construct: 6xHis (polyhistidine) (N)
Put plainly: VEGF-R2 Kinase Screening Assay. The conditions noted are these: 10 μM ATP; rat VEGF-R2 kinase domain; read-out: IC50 (μM) VEGFR. Type of assay: biochemical. As to the method:
A kinase reaction mixture was prepared containing 50 mM Tris-HCl pH=8, 10 mM MgCl2, 0.1 mM Na3PO4, 1 mM DTT, 10 μM ATP, 0.025 μM biotinylated peptide substrate and 0.8 μCuries per well ^33P-γ-ATP (2000-3000 Ci/mmol). 70 μL of the kinase reaction mixture was dispensed into each well of a streptavidin coated FlashPlate™ (Cat. # SMP103, NEN, Boston, Mass.). Then 1 μL of test compound stock in 100% DMSO was added to the wells resulting in a final concentration of 1% DMSO in the reaction with a 100 μL final reaction volume. Next, soluble rat tyrosine kinase containing an N-terminal 6×HIS tag was diluted in 50 mM Tris-HCl pH=8.0, 0.1% BSA at a concentration of 5 ng per μL and 30 μL (150 ng enzyme per test well) was added to each well to initiate the reaction. The reaction was incubated for one hour at 30° C. At the end of the 1 h incubation, the reaction was terminated by aspirating the reaction mixture from the plate and washing the wells twice with PBS containing 100 mM EDTA. The PLC1 biotinylated peptide substrate became immobilized on the Flashplate™ and the incorporation of ^33P-γ-ATP was measured by reading the plate on a scintillation counter. Inhibition of the enzymatic activity of the VEGF-R2 kinase was measured by observing a reduced amount of ^33P-γ-ATP incorporated into the immobilized peptide.
as §1

The target in assay [3] is T3, HER2 (Homo sapiens, UniProt P04626).
T3 construct: polyhistidine (N)
Kind of assay: HER2 Kinase Screening Assay. Type of assay: biochemical. As to conditions: 10 μM ATP; >10 or >100 = less than 50% inhibition at highest concentration tested. As to the method: The HER2 kinase assay was carried out as described above for the VEGF-R kinase assay except that the enzyme was replaced with a human epidermal growth factor receptor-2 (HER2) construct contains a polyhistidine tag at the N-terminus followed by 24 additional amino acids and begins at amino acid 676 (Accession #M11730) followed by the remainder of the HER2 cytoplasmic domain.
as §1

The test system of assay [4] is HeLa cervical adenocarcinoma. Put plainly: Inhibition of cell proliferation (14C-thymidine incorporation), HeLa. Type of assay: cell-based. As to the method: The ability of a test compound to inhibit the proliferation of cell growth was determined by measuring incorporation of ^14C-labelled thymidine into newly synthesized DNA within the cells. This method was used on cell lines derived from carcinomas originating from several tissues such as HeLa cervical adenocarcinoma (American Type Culture Collection (ATCC), Virginia, Cat. #CCL-2), A375 malignant melanoma (ATCC CRL-1619), and HCT-116 colon carcinoma (CCL-247). In this way the effect of a compound on cell growth of cells with many different phenotypes can be determined. Cells were trypsinized and counted and 3000-8000 cells were added to each well of a 96-well CytoStar tissue culture treated scintillating microplate (Amersham #RPNQ0160) in complete medium in a volume of 100 μl. Cells were incubated for 24 hours in complete medium at 37° C. in an atmosphere containing 5% CO2.
Next, 1 μl of test compound in 100% DMSO was added to the wells of the plate. DMSO only was added to control wells. Cells were incubated for 24 more hours in complete medium at 37° C. in an atmosphere containing 5% CO2. Methyl ^14C-thymidine 56 mCi/mmol (NEN #NEC568 or Amersham #CFA532) was diluted in complete medium and 0.2 uCi/well was added to each well of the CytoStar plate in a volume of 20 ul. The plate was incubated for 24 hours at 37° C. plus 5% CO2 in drug plus ^14C-thymidine. The contents of the plate were discarded into a ^14C radioactive waste container by inverting the plate and the plate was washed twice with 200 μl PBS.
200 μl of PBS was added to each well. The top of the plate was sealed with a transparent plate sealer and a white plate backing sealer (Packard #6005199) was applied to the bottom of the plate. The degree of methyl ^14C-thymidine incorporation was quantified on a Packard Top Count.
For orientation: Uptake of a labelled nucleoside into DNA is a usual measure of proliferation.

T2 sequence (O08775 786-1343): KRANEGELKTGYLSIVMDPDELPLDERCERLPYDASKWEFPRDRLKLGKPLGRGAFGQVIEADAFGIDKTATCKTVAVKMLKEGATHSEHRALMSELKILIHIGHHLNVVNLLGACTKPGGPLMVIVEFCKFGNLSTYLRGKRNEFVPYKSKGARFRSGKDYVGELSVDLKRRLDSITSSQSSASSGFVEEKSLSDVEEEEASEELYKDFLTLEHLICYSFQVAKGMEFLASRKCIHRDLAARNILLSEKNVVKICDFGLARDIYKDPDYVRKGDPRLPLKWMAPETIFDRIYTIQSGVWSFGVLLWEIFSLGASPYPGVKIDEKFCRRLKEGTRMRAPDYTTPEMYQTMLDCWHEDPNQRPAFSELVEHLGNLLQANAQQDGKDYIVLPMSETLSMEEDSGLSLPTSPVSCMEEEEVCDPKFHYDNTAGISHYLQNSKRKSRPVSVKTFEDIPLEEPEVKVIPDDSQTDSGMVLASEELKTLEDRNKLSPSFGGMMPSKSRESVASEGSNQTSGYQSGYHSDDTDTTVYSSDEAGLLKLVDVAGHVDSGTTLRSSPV
T1 sequence (P06493 whole entry): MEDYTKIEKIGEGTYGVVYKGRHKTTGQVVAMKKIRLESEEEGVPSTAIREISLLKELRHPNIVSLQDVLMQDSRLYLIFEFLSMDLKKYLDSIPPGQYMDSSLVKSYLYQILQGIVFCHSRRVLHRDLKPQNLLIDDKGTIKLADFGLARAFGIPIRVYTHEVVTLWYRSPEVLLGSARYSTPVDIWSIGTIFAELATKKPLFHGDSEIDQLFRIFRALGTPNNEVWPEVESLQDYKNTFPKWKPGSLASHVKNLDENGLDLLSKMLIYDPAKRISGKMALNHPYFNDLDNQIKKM
T1 sequence (P14635 whole entry partner): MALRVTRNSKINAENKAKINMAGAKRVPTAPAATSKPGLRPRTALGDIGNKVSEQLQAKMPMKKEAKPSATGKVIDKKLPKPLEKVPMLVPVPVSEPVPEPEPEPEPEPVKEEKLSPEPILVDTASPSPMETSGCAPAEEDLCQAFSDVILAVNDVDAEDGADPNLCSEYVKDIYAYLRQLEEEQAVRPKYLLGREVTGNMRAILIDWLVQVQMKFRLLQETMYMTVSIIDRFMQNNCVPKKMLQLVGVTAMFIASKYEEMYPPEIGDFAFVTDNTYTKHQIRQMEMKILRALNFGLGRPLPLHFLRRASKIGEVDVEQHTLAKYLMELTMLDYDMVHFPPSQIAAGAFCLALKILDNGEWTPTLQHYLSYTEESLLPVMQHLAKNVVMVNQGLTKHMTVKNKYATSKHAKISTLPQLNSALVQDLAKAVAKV

Consider `Nc1nc(Nc2ccc(S(=O)(=O)NC(=O)COCCOCCOCC(=O)O)cc2)nn1C(=O)c1c(F)cccc1F` [Compound 12, {2-[2-(2-{4-[5-amino-1-(2,6-difluoro-benzoyl)-1H-[1,2,4]triazol-3-ylamino]-benzenesulfonylamino}-2-oxo-ethoxy)-ethoxy]-ethoxy}-acetic acid.2TFA salt], for which the 50% inhibitory concentration (IC50) is 0.76 µM in assay [1], 16.8 µM in assay [2], more than 100 µM in assay [3] and 30.8 µM in assay [4] (Homo sapiens).
The corresponding values for `CN(C)CC(=O)NS(=O)(=O)c1ccc(Nc2nc(N)n(C(=O)c3c(F)cccc3F)n2)cc1` [Compound 6, 4-[5-amino-1-(2,6-difluoro-benzoyl)-1H-[1,2,4]triazol-3-ylamino]-N-(2-dimethylamino-acetyl)-benzenesulfonamide] are 2.13 µM, 1.22 µM, not below 10 µM and more than 10 µM.
The corresponding values for `C[C@@H](N)C(=O)NS(=O)(=O)c1ccc(Nc2nc(N)n(C(=O)c3c(F)cccc3F)n2)cc1` [Compound 14, 4-[5-amino-1-(2,6-difluoro-benzoyl)-1H-[1,2,4]triazol-3-ylamino]-N—((R)-2-amino-propionyl)-benzenesulfonamide] are 0.74 µM, 0.89 µM, not below 10 µM and 1.96 µM.
Turning to “4-[5-amino-1-(2,6-difluoro-benzoyl)-1H-[1,2,4]triazol-3-ylamino]-N-propionyl-benzenesulfonamide [Compound 20]”, the half-maximal inhibitory concentration (IC50) in assay [1] is 1.82 µM; in assay [2], 1 µM; in assay [3], not below 10 µM; in assay [4], 58.8 µM.
As to `Nc1nc(Nc2ccc(S(=O)(=O)NC(=O)[C@@H](N)CO)cc2)nn1C(=O)c1c(F)cccc1F` [Compound 13, 4-[5-amino-1-(2,6-difluoro-benzoyl)-1H-[1,2,4]triazol-3-ylamino]-N—((S)-2-amino-3-hydroxy-propionyl)-benzenesulfonamide], the IC50 in assay [1] is 1.41 µM; in assay [2] it was 1.54 µM; in assay [3] it was not below 10 µM; in assay [4] (Homo sapiens), 4.02 µM.
For `CN1CCN(CCC(=O)NS(=O)(=O)c2ccc(Nc3nc(N)n(C(=O)c4c(F)cccc4F)n3)cc2)CC1` [Compound 5, 4-[5-amino-1-(2,6-difluoro-benzoyl)-1H-[1,2,4]triazol-3-ylamino]-N-[3-(4-methyl-piperazin-1-yl)-propionyl]-benzenesulfonamide], in that order: 1.34 µM, 1.88 µM, not below 10 µM and more than 100 µM.
For `Nc1nc(Nc2ccc(S(=O)(=O)NC(=O)CCC(=O)O)cc2)nn1C(=O)c1c(F)cccc1F` [Compound 1, 4-{4-[5-amino-1-(2,6-difluoro-benzoyl)-1H-[1,2,4]triazol-3-ylamino]-benzenesulfonylamino}-4-oxo-butyric acid], in that order: 0.49 µM, 1.66 µM, not below 10 µM and 31.9 µM.
As to `NCC(=O)NS(=O)(=O)c1ccc(Nc2nc(N)n(C(=O)c3c(F)cccc3F)n2)cc1` [Compound 2, N-(2-amino-acetyl)-4-[5-amino-1-(2,6-difluoro-benzoyl)-1H-[1,2,4]triazol-3-ylamino]-benzenesulfonamide], the IC50 is 1.07 µM in assay [1], 1.97 µM in assay [2], not below 10 µM in assay [3] and 14.9 µM in assay [4] (Homo sapiens).
The corresponding values for `COCCOCCOCC(=O)NS(=O)(=O)c1ccc(Nc2nc(N)n(C(=O)c3c(F)cccc3F)n2)cc1` [Compound 9, 4-[5-amino-1-(2,6-difluoro-benzoyl)-1H-[1,2,4]triazol-3-ylamino]-N-{2-[2-(2-methoxy-ethoxy)-ethoxy]-acetyl}-benzenesulfonamide] are 4.69 µM, not below 100 µM, more than 100 µM and more than 10 µM.
For `CCOC(=O)CCC(=O)NS(=O)(=O)c1ccc(Nc2nc(N)n(C(=O)c3c(F)cccc3F)n2)cc1` [Compound 8, 4-{4-[5-amino-1-(2,6-difluoro-benzoyl)-1H-[1,2,4]triazol-3-ylamino]-benzenesulfonylamino}-4-oxo-butyric acid ethyl ester], in that order: 0.47 µM, 0.47 µM, 1.23 µM and 60.2 µM.
The corresponding values for `Nc1nc(Nc2ccc(S(=O)(=O)NC(=O)CCN3CCOCC3)cc2)nn1C(=O)c1c(F)cccc1F` [Compound 7, 4-[5-amino-1-(2,6-difluoro-benzoyl)-1H-[1,2,4]triazol-3-ylamino]-N-(3-morpholin-4-yl-propionyl)-benzenesulfonamide] are 1.55 µM, 1.65 µM, more than 100 µM and 20.9 µM.
As for `Nc1nc(Nc2ccc(S(=O)(=O)NC(=O)Cn3cnnn3)cc2)nn1C(=O)c1c(F)cccc1F` [Compound 4, 4-[5-amino-1-(2,6-difluoro-benzoyl)-1H-[1,2,4]triazol-3-ylamino]-N-(2-tetrazol-1-yl-acetyl)-benzenesulfonamide], the IC50 in assay [1] was 5.39 µM; in assay [2], 2.34 µM; in assay [3], not below 10 µM; in assay [4] (Homo sapiens), more than 100 µM.
For `C[C@H](N)C(=O)N[C@@H](C)C(=O)NS(=O)(=O)c1ccc(Nc2nc(N)n(C(=O)c3c(F)cccc3F)n2)cc1.O=C(O)C(F)(F)F.O=C(O)C(F)(F)F.O=C(O)C(F)(F)F` [Compound 15, (S)-2-amino-N—((S)-2-{4-[5-amino-1-(2,6-difluoro-benzoyl)-1H-[1,2,4]triazol-3-ylamino]-benzenesulfonylamino}-1-methyl-2-oxo-ethyl)-propionamide 3 TFA salt], the IC50 in assay [1] was 1.36 µM; in assay [2], 2.03 µM; in assay [3], not below 10 µM; in assay [4] (Homo sapiens), 1.04 µM.
